Patent US20240270762A1, “PENICILLIN-BINDING PROTEIN INHIBITORS” (priority 2021, published 2024)
≈ marks a conversion by molar mass, not a printed value.

How the values were obtained:
Type in all cases: cell-based
E. coli AG100A = test: Broth microdilution MIC in CAMHB; details: Escherichia coli, read-out: MIC E. coli AG100A
K. pneumoniae 848844 = test: microbe, parasite or virus in culture; details: Klebsiella pneumoniae, 848844, read-out: MIC K. pneumoniae 848844
E. coli 901C = test: microbe, parasite or virus in culture; details: Escherichia coli, read-out: MIC E. coli 901C
K. pneumoniae SI-117 = test: microbe, parasite or virus in culture; details: Klebsiella pneumoniae, SI117, read-out: MIC K. pneumoniae SI-117
[1] = system: P. aeruginosa (ΔmexAB-oprM); test: Broth microdilution MIC in CAMHB; details: Pseudomonas aeruginosa; read-out: MIC P. aeruginosa ΔmexAB-oprM
E. coli D22 = test: microbe, parasite or virus in culture; details: Escherichia coli, D22, read-out: MIC E. coli D22
E. coli ATCC 25922 = test: microbe, parasite or virus in culture; details: Escherichia coli, ATCC25922, read-out: MIC E. coli 25922
K. pneumoniae UMM = test: microbe, parasite or virus in culture; details: Klebsiella pneumoniae, read-out: MIC K. pneumoniae UMM
P. aeruginosa ATCC 27853 = test: microbe, parasite or virus in culture; details: Pseudomonas aeruginosa, ATCC27853, read-out: MIC P. aeruginosa ATCC 27853
E. coli AG100 = test: microbe, parasite or virus in culture; details: Escherichia coli, AG100, read-out: MIC E. coli AG100
P. aeruginosa ATCC 35151 = test: microbe, parasite or virus in culture; details: Pseudomonas aeruginosa, ATCC35151, read-out: MIC P. aeruginosa ATCC 35151
A. baumannii ATCC 19606 = test: microbe, parasite or virus in culture; details: Acinetobacter baumannii, ATCC19606, read-out: MIC, A. baumannii ATCC 19606
B. pseudomallei Bp82 = test: microbe, parasite or virus in culture; details: Burkholderia pseudomallei, BP82, read-out: Minimum inhibitory concentration, B. pseudomallei Bp82

## CCN1CCN(C(=O)NC(C(=O)N[C@H]2Cc3cccc(C(=O)O)c3OB2O)c2ccc(P(=O)(O)O)c(F)c2O)C(=O)C1=O (stereo partly drawn) [Example 198, (3R)-3-(2-(4-ethyl-2,3-dioxopiperazine-1-carboxamido)-2-(3-fluoro-2-hydroxy-4-phosphonophenyl)acetamido)-2-hydroxy-3,4-dihydro-2H-benzo[e][1,2]oxaborinine-8-carboxylic acid]
E. coli AG100A
  MIC: 32 to 64 µg/mL (≈ 51.4 to 103 µM)
K. pneumoniae 848844
  MIC: > 128 µg/mL
E. coli 901C
  MIC: < 1 µg/mL
K. pneumoniae SI-117
  MIC: > 128 µg/mL
[1]
  MIC: > 128 µg/mL
E. coli D22
  MIC: 8 to 16 µg/mL (≈ 12.9 to 25.7 µM)
E. coli ATCC 25922
  MIC: > 128 µg/mL
K. pneumoniae UMM
  MIC: 32 to 64 µg/mL (≈ 51.4 to 103 µM)
P. aeruginosa ATCC 27853
  MIC: > 128 µg/mL
E. coli AG100
  MIC: > 128 µg/mL
P. aeruginosa ATCC 35151
  MIC: 8 to 16 µg/mL (≈ 12.9 to 25.7 µM)
A. baumannii ATCC 19606
  MIC: 32 to 64 µg/mL (≈ 51.4 to 103 µM)

## CN(CCN1CCN(C(=O)N[C@@H](C(=O)N[C@H]2Cc3ccc(F)c(C(=O)O)c3OB2O)c2cc(F)c(O)c(O)c2Cl)C(=O)C1=O)Cc1cncc(O)c1 [Example 208, (R)-3-((R)-2-(2-chloro-5-fluoro-3,4-dihydroxyphenyl)-2-(4-(2-(((5-hydroxypyridin-3-yl)methyl)(methyl)amino)ethyl)-2,3-dioxopiperazine-1-carboxamido)acetamido)-7-fluoro-2-hydroxy-3,4-dihydro-2H-benzo[e][1,2]oxaborinine-8-carboxylic acid]
B. pseudomallei Bp82
  MIC: < 1 µg/mL

## O=C(NCCCN1CCN(C(=O)N[C@@H](C(=O)N[C@H]2Cc3ccc(F)c(C(=O)O)c3OB2O)c2cc(F)c(O)c(O)c2Cl)C(=O)C1=O)c1cccnc1 [Example 210, (R)-3-((R)-2-(2-chloro-5-fluoro-3,4-dihydroxyphenyl)-2-(4-(3-(nicotinamido)propyl)-2,3-dioxopiperazine-1-carboxamido)acetamido)-7-fluoro-2-hydroxy-3,4-dihydro-2H-benzo[e][1,2]oxaborinine-8-carboxylic acid]
B. pseudomallei Bp82
  MIC: < 1 µg/mL

## O=C(NCCCN1CCN(C(=O)NC(C(=O)N[C@H]2Cc3ccc(F)c(C(=O)O)c3OB2O)c2cc(F)c(O)c(O)c2Cl)C(=O)C1=O)c1nccs1 (stereo partly drawn) [Example 211, (3R)-3-(2-(2-chloro-5-fluoro-3,4-dihydroxyphenyl)-2-(2,3-dioxo-4-(3-(thiazole-2-carboxamido)propyl)piperazine-1-carboxamido)acetamido)-7-fluoro-2-hydroxy-3,4-dihydro-2H-benzo[e][1,2]oxaborinine-8-carboxylic acid]
B. pseudomallei Bp82
  MIC: < 1 µg/mL

## O=C(O)c1c(F)ccc2c1OB(O)[C@@H](NC(=O)C(NC(=O)N1CCN(CCCNC(=O)[C@@H]3CCCN3)C(=O)C1=O)c1cc(F)c(O)c(O)c1Cl)C2 (stereo partly drawn) [Example 212, (3R)-3-(2-(2-chloro-5-fluoro-3,4-dihydroxyphenyl)-2-(2,3-dioxo-4-(3-((S)-pyrrolidine-2-carboxamido)propyl)piperazine-1-carboxamido)acetamido)-7-fluoro-2-hydroxy-3,4-dihydro-2H-benzo[e][1,2]oxaborinine-8-carboxylic acid]
B. pseudomallei Bp82
  MIC: < 1 µg/mL

## O=C(NCCCN1CCN(C(=O)NC(C(=O)N[C@H]2Cc3ccc(F)c(C(=O)O)c3OB2O)c2cc(F)c(O)c(O)c2Cl)C(=O)C1=O)Nc1cccnc1 (stereo partly drawn) [Example 213, (3R)-3-(2-(2-chloro-5-fluoro-3,4-dihydroxyphenyl)-2-(2,3-dioxo-4-(3-(3-(pyridin-3-yl)ureido)propyl)piperazine-1-carboxamido)acetamido)-7-fluoro-2-hydroxy-3,4-dihydro-2H-benzo[e][1,2]oxaborinine-8-carboxylic acid]
B. pseudomallei Bp82
  MIC: < 1 µg/mL

## O=C(NCCN1CCN(C(=O)NC(C(=O)N[C@H]2Cc3ccc(F)c(C(=O)O)c3OB2O)c2cc(F)c(O)c(O)c2Cl)C(=O)C1=O)c1cccnc1 (stereo partly drawn) [Example 217, (3R)-3-(2-(2-chloro-5-fluoro-3,4-dihydroxyphenyl)-2-(4-(2-(nicotinamido)ethyl)-2,3-dioxopiperazine-1-carboxamido)acetamido)-7-fluoro-2-hydroxy-3,4-dihydro-2H-benzo[e][1,2]oxaborinine-8-carboxylic acid]
B. pseudomallei Bp82
  MIC: 8 to 16 µg/mL (≈ 10.9 to 21.9 µM)

## O=C(NCCN1CCN(C(=O)N[C@@H](C(=O)N[C@H]2Cc3ccc(F)c(C(=O)O)c3OB2O)c2cc(F)c(O)c(O)c2Cl)C(=O)C1=O)Nc1ccncc1 [Example 221, (R)-3-((R)-2-(2-chloro-5-fluoro-3,4-dihydroxyphenyl)-2-(2,3-dioxo-4-(2-(3-(pyridin-4-yl)ureido)ethyl)piperazine-1-carboxamido)acetamido)-7-fluoro-2-hydroxy-3,4-dihydro-2H-benzo[e][1,2]oxaborinine-8-carboxylic acid]
B. pseudomallei Bp82
  MIC: < 1 µg/mL

## O=C(O)c1c(F)ccc2c1OB(O)[C@@H](NC(=O)[C@H](NC(=O)N1CCN(CCNC(=O)[C@@H]3CCCN3)C(=O)C1=O)c1cc(F)c(O)c(O)c1Cl)C2 [Example 229, (R)-3-((R)-2-(2-chloro-5-fluoro-3,4-dihydroxyphenyl)-2-(2,3-dioxo-4-(2-((S)-pyrrolidine-2-carboxamido)ethyl)piperazine-1-carboxamido)acetamido)-7-fluoro-2-hydroxy-3,4-dihydro-2H-benzo[e][1,2]oxaborinine-8-carboxylic acid]
B. pseudomallei Bp82
  MIC: < 1 µg/mL

## O=C(NCCN1CCN(C(=O)NC(C(=O)N[C@H]2Cc3ccc(F)c(C(=O)O)c3OB2O)c2cc(F)c(O)c(O)c2Cl)C1=O)c1ccncc1 (stereo partly drawn) [Example 245, (3R)-3-(2-(2-chloro-5-fluoro-3,4-dihydroxyphenyl)-2-(3-(2-(isonicotinamido)ethyl)-2-oxoimidazolidine-1-carboxamido)acetamido)-7-fluoro-2-hydroxy-3,4-dihydro-2H-benzo[e][1,2]oxaborinine-8-carboxylic acid]
B. pseudomallei Bp82
  MIC: < 1 µg/mL

## O=C(NCCN1CCN(C(=O)NC(C(=O)N[C@H]2Cc3ccc(F)c(C(=O)O)c3OB2O)c2cc(F)c(O)c(O)c2Cl)C1=O)Nc1ccncc1 (stereo partly drawn) [Example 250, (3R)-3-(2-(2-chloro-5-fluoro-3,4-dihydroxyphenyl)-2-(2-oxo-3-(2-(3-(pyridin-4-yl)ureido)ethyl)imidazolidine-1-carboxamido)acetamido)-7-fluoro-2-hydroxy-3,4-dihydro-2H-benzo[e][1,2]oxaborinine-8-carboxylic acid]
B. pseudomallei Bp82
  MIC: < 1 µg/mL

## O=C(NCCN1CCN(C(=O)NC(C(=O)N[C@H]2Cc3ccc(F)c(C(=O)O)c3OB2O)c2cc(F)c(O)c(O)c2Cl)C1=O)Nc1cccnc1 (stereo partly drawn) [Example 251, (3R)-3-(2-(2-chloro-5-fluoro-3,4-dihydroxyphenyl)-2-(2-oxo-3-(2-(3-(pyridin-3-yl)ureido)ethyl)imidazolidine-1-carboxamido)acetamido)-7-fluoro-2-hydroxy-3,4-dihydro-2H-benzo[e][1,2]oxaborinine-8-carboxylic acid]
B. pseudomallei Bp82
  MIC: < 1 µg/mL

## O=C(NCCCN1CCN(C(=O)NC(C(=O)N[C@H]2Cc3ccc(F)c(C(=O)O)c3OB2O)c2cc(F)c(O)c(O)c2Cl)C1=O)c1ccncc1 (stereo partly drawn) [Example 256, (3R)-3-(2-(2-chloro-5-fluoro-3,4-dihydroxyphenyl)-2-(3-(3-(isonicotinamido)propyl)-2-oxoimidazolidine-1-carboxamido)acetamido)-7-fluoro-2-hydroxy-3,4-dihydro-2H-benzo[e][1,2]oxaborinine-8-carboxylic acid]
B. pseudomallei Bp82
  MIC: < 1 µg/mL

## O=C(NCCCN1CCN(C(=O)NC(C(=O)N[C@H]2Cc3ccc(F)c(C(=O)O)c3OB2O)c2cc(F)c(O)c(O)c2Cl)C1=O)c1nccs1 (stereo partly drawn) [Example 257, (3R)-3-(2-(2-chloro-5-fluoro-3,4-dihydroxyphenyl)-2-(2-oxo-3-(3-(thiazole-2-carboxamido)propyl)imidazolidine-1-carboxamido)acetamido)-7-fluoro-2-hydroxy-3,4-dihydro-2H-benzo[e][1,2]oxaborinine-8-carboxylic acid]
B. pseudomallei Bp82
  MIC: < 1 µg/mL
